Measured values as given in patent publication US11401294B2, “Co-crystal forms of a novobiocin analog and proline” (Reata Pharmaceuticals, Inc., priority 2018, dated 2022).
Read-outs that look alike come from different tables or passages of the source. Marks after values point to notes of the source that are not given here. Values belong to the compound of their own block, whether it stands above or below them.

How the values were obtained:
Hsp90 = conditions: Kusuma (2012) and Ma (2015); cited from earlier work
neurons = conditions: Kusuma (2012); cited from earlier work
[1] = Systemic exposure to 4a after single oral gavage (suspension) or loose-filled capsule in monkeys (plasma LC/MS/MS, PK); assay type: in vivo; conditions: male, cynomolgus, cynomolgus monkey, oral gavage suspension 30 mg/kg, 0.25 hr, read-out: 4a Plasma Concentration, mean (±SD)
in vivo = conditions: male, C57BL/6, mouse, po, 1000 mg/kg
Experimental: Blood samples for plasma isolation were collected at 0.25, 0.5, 1, 2, 4, 8, and 24 hours post-dose, using a separate group (n=5/group/time point) of mice for each time point, as summarized in Table 14 below. Plasma samples were analyzed for concentrations of 4a by LC/MS/MS methodology as described below.
4a was extracted from K3EDTA-fortified plasma samples using a protein precipitation method. In a well of a polypropylene microplate (96-well), 20 μL of a 2.5-ng/mL D3-4a (internal standard, IS) solution prepared in acetonitrile/H2O (1:1) was added, followed by addition of 20 μL of plasma sample. The plate was sealed with sealing tape (Phenomenex, AH0-7362) and gently mixed with a vortex-mixer for 1 minute. The solution was pipetted into a well of a polypropylene plate (96-well, 2 mL, Phenomenex, AH0-7194) that contained 500 μL of methanol. The plate was sealed and vortex-mixed for 5 minutes followed by centrifugation at 3000×g for 3 minutes at room temperature. A 300-μL aliquot of the supernatant was transferred to a new well that contained 300 μL of deionized water. After gentle mixing, the plate was sealed and placed in an LC autosampler maintained at 12° C., and a 10-μL aliquot was injected into an LC/MS/MS system for quantitative analysis of 4a.
Liquid chromatographic separation of 4a was achieved by a reversed-phase analytical column with mobile phase solution containing H2O, acetonitrile, and formic acid. The chromatographed analyte was detected by a Waters Xevo TQ-S triple quadrupole mass spectrometer operating in multiple-reaction-monitoring (MRM) mode. Chromatographed peak areas for quality control samples, calibration standards, and study samples were integrated using MassLynx software V4.1 (Waters Corp.).
Pharmacokinetic parameter estimates were obtained from non-compartmental analysis of the mean 4a plasma concentration-time data for each dose group using WinNonlin™ software version 6.3 (Pharsight Corp., Cary, N.C.). […] The time of the last measurable concentration was defined as the time after which 4a concentrations were below the limit of quantitation (BLQ) in the majority of animals for each dose group.

[2] = Systemic exposure to 4a after single oral gavage (suspension) or loose-filled capsule in monkeys (plasma LC/MS/MS, PK); assay type: in vivo, male cynomolgus monkeys; conditions: for AUC(0-t): read-out: AUC(0-t), mean (±SD); for Cmax: read-out: Cmax, mean (±SD); for Tmax: read-out: Tmax (median)
Experimental: Dosing of Material A accounted for the presence of proline on a weight basis. Blood samples for plasma isolation were collected at […], 0.5, 1, 2, 4, 8, 12, and 24 hours post-dose from each monkey.

[3] = male, cynomolgus, cynomolgus monkey, plasma, oral gavage suspension 30 mg/kg, read-out: 4a Plasma Concentration, mean (±SD)
[4] = male, cynomolgus, cynomolgus monkey, plasma, oral gavage suspension 30 mg/kg
[5] = male, cynomolgus, cynomolgus monkey, plasma, oral, capsule 50 mg, read-out: 4a Plasma Concentration, mean (±SD)
[6] = male, cynomolgus, cynomolgus monkey, plasma, oral, capsule 50 mg, BLQ values included as 1/2 LLOQ (0.200 ng/mL), read-out: 4a Plasma Concentration, mean (±SD)
[7] = male, cynomolgus, cynomolgus monkey, plasma, po, 50 mg capsule

Structure (SMILES): CO[C@@H]1[C@@H](O)[C@@H](O)C(Oc2ccc(CCNC(C)=O)c(-c3cccc(F)c3)c2)OC1(C)C (single isomer, unassigned) [Form 4]
- potency in Hsp70-independent inhibition of Hsp90 (Hsp90): excellent potency
- neuronal protective activity (neurons): high neuronal protective activity

- concentration at […] [1]: 103 ± 71 ng/mL
- AUC(0-t) (in vivo): 2880 ng·h/mL
- Cmax (in vivo): 6760 ng/mL
- Tmax (in vivo): 15 min
- concentration at 0.5 h (in vivo): 3060 ± 1600 ng/mL
- concentration at 1 h (in vivo): 359 ± 140 ng/mL
- concentration at 2 h (in vivo): 80.7 ± 116 ng/mL
- concentration at 4 h (in vivo): 2.28 ± 0.92 ng/mL
- concentration at 8 h (in vivo): 4.01 ± 4.34 ng/mL
- 4a Plasma Concentration, mean (±SD) ([2]; capsule 50 mg, 24 hr, BLQ values included as 1/2 LLOQ (0.200 ng/mL)): 6.11 ± 9.23^c ng/mL
- concentration at 0.5 h [2, 3]: 129 ± 92 ng/mL
- concentration at 1 h [2, 3]: 128 ± 56 ng/mL
- concentration at 2 h [2, 3]: 80.2 ± 26.4 ng/mL
- concentration at 4 h [2, 3]: 14.1 ± 5.5 ng/mL
- concentration at 8 h [2, 3]: 1.2 ± 0.45 ng/mL
- AUC(0-t) [2, 4]: 307 ± 96 ng·h/mL
- Cmax [2, 4]: 160 ± 78 ng/mL
- Tmax [2, 4]: 30 min
- concentration at […] ([2]; male, cynomolgus, cynomolgus monkey, plasma, oral, capsule 50 mg, 0.25 hr, read-out: 4a Plasma Concentration, mean (±SD)): 15.9 ± 12.9 ng/mL
- concentration at 0.5 h [2, 5]: 12.3 ± 5.5 ng/mL
- concentration at 1 h [2, 5]: 5.97 ± 0.95 ng/mL
- concentration at 2 h [2, 6]: 1.9 ± 1.89 ng/mL
- concentration at 4 h [2, 6]: 0.2 ng/mL
- concentration at 8 h [2, 6]: 0.951 ± 1.3 ng/mL
- concentration at 12 h ([2]; male, cynomolgus, cynomolgus monkey, plasma, oral, capsule 50 mg, 12 hr, BLQ values included as 1/2 LLOQ (0.200 ng/mL), read-out: 4a Plasma Concentration, mean (±SD)): 3.53 ± 5.78 ng/mL
- concentration at 24 h ([2]; male, cynomolgus, cynomolgus monkey, plasma, oral, loose-filled capsule 50 mg, 24 hours post-dose (secondary peak), read-out: mean (±SD) 4a plasma concentration): 6.11 ± 9.23 ng/mL
- AUC(0-t) [2, 7]: 81.6 ± 105 ng·h/mL
- Cmax [2, 7]: 19.7 ± 9.4 ng/mL
- Tmax [2, 7]: 15 min
- 4a Plasma Concentration, mean (±SD) ([2]; oral gavage suspension 30 mg/kg, 12 hr): BLQ^d
- 4a Plasma Concentration, mean (±SD) ([2]; oral gavage suspension 30 mg/kg, 24 hr): BLQ^d
Structure (SMILES): CO[C@@H]1[C@@H](O)[C@@H](O)[C@H](Oc2ccc(CCNC(C)=O)c(-c3cccc(F)c3)c2)OC1(C)C [amorphous 4a, N-(2-(5-(((2R,3R,4S,5R)-3,4-dihydroxy-5-methoxy-6,6-dimethyltetra-hydro-2H-pyran-2-yl)oxy)-3′-fluoro-[1,1′-biphenyl]-2-yl)ethyl)-acetamide]
